In ChEMBL document CHEMBL6074646, “Carvacrol-conjugated 3-Hydroxybenzoic Acids: Design, Synthesis, cardioprotective potential against doxorubicin-induced Cardiotoxicity, and ADMET study” (Bioorg Med Chem Lett, 2024):
Activity calls are given as the source filed them. The rule behind the calls is not given here.

Legend:
H9c2 [1] = assay: Protection against doxorubicin-induced cardiotoxicity in rat H9c2 cells assessed as increase in cell viability at 10 uM preincubated for 24 hrs followed by doxorubicin stimulation and measured after 24 hrs; format: functional, cell-based; settings: time 48.0 hrs
H9c2 [2] = assay: Cytotoxicity against rat H9C2 cells at 10 uM incubated for 48 hrs by cell counting assay; format: toxicity, cell-based; settings: h9c2, 48 h

Compound | Activity (H9c2 [1]) | Activity (H9c2 [2])
Cc1cc(CO)c(C(C)C)cc1OC(=O)COC(=O)c1cccc(O)c1 | inactive | Non-toxic
O=C(O)c1cccc(O)c1 [3-HYDROXYBENZOIC ACID] | inactive | Non-toxic
Cc1ccc(C(C)C)cc1OC(=O)CCCOC(=O)c1cccc(O)c1 |  | Non-toxic
Cc1ccc(C(C)C)cc1OC(=O)CCOC(=O)c1cccc(O)c1 |  | Non-toxic
Cc1cc(CO)c(C(C)C)cc1OC(=O)CCCOC(=O)c1cccc(O)c1 | inactive | Non-toxic
Cc1ccc(C(C)C)cc1OCCOC(=O)c1cccc(O)c1 |  | Non-toxic
Cc1cc(CO)c(C(C)C)cc1OCCCOC(=O)c1cccc(O)c1 | inactive | Non-toxic
Cc1ccc(C(C)C)cc1OC(=O)COC(=O)c1cccc(O)c1 |  | Non-toxic
Cc1cc(CO)c(C(C)C)cc1OCCOC(=O)c1cccc(O)c1 | inactive | Non-toxic
Cc1ccc(C(C)C)cc1OCCCOC(=O)c1cccc(O)c1 |  | Non-toxic
Cc1cc(CO)c(C(C)C)cc1OC(=O)CCOC(=O)c1cccc(O)c1 | inactive | Non-toxic
Cc1cc(CO)c(C(C)C)cc1OCCCCOC(=O)c1cccc(O)c1 | inactive | Non-toxic
Cc1ccc(C(C)C)cc1O [CARVACROL] | inactive | Non-toxic
Cc1ccc(C(C)C)cc1OCCCCOC(=O)c1cccc(O)c1 | Active | Non-toxic
